The values that follow come from patent US20240383905A1, “FGFR INHIBITORS AND METHODS OF USE THEREOF” (3H PHARMACEUTICALS CO., LTD., priority 2021, published 2024).

The target of one experiment is T1, FGFR2 (Homo sapiens, UniProt P21802).
T1 construct: purchased Carna 08-134
As to the kind of experiment: FGFR2 Biochemical Caliper Assay (KinEASE-TK kit). As to conditions: 0.07 nM FGFR2; compound incubated with protein 10 min, reaction 45 min at RT; read-out: FGFR2 Cliper IC50.

A further experiment has as its target T2, FGFR3 (Homo sapiens, UniProt P22607).
T2 construct: purchased Carna 08-135
As to the kind of experiment: FGFR3 Biochemical Caliper Assay (KinEASE-TK kit). As to conditions: ratio FGFR3/FGFR2 of the biochemical assay. The procedure, abridged: (§1)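 KinEASE-TK HTRF readout: enzyme at 0.2 nM (FGFR1, FGFR3) preincubated 10 min at RT with 10-point 3-fold compound dilutions before TK-substrate/ATP start.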

The next experiment deals with T3, FGFR1 (Homo sapiens, UniProt P11362).
T3 construct: purchased Carna 08-133
As to the kind of experiment: FGFR1 Biochemical Caliper Assay (KinEASE-TK kit). Conditions: ratio FGFR1/FGFR2 of the biochemical assay. The procedure, abridged:
as §1

For a further experiment, the system named is SNU16 cells. As to the kind of experiment: SNU16 Cancer Cell Line Proliferation Assay (CellTiter-Glo). Conditions: Homo sapiens, SNU-16, 72 h. It is filed as cell-based. In short, it runs like this: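 Luminescent ATP read-out after 72 h at 37 °C gave IC50 values; compounds tested as 9 three-fold serial dilutions on 5000 SNU16 cells per well, with DMSO as control.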
On the technique in general: Cellular ATP, detected with luciferase, serves as a proxy for viable cell number.

T2 sequence (P22607 23-806): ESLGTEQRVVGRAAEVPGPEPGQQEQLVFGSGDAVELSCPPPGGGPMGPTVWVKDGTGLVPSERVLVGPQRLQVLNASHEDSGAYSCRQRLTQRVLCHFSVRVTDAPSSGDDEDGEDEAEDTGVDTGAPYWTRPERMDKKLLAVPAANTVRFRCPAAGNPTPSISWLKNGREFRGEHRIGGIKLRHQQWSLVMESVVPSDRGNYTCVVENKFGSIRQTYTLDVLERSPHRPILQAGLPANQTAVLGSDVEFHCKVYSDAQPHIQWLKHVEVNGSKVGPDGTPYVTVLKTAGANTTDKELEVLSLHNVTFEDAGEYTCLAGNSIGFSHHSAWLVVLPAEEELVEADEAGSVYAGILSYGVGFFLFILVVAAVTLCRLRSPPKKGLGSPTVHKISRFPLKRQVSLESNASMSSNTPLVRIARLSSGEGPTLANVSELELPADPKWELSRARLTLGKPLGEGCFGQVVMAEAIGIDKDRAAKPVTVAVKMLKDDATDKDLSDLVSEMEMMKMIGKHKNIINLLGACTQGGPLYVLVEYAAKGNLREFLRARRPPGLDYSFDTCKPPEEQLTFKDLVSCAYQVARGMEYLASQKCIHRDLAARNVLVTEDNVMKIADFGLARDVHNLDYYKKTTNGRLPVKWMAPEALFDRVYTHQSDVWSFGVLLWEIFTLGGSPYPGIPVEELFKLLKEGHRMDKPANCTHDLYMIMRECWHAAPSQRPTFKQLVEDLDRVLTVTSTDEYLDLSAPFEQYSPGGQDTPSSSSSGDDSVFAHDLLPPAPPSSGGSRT
T3 sequence (P11362 22-822): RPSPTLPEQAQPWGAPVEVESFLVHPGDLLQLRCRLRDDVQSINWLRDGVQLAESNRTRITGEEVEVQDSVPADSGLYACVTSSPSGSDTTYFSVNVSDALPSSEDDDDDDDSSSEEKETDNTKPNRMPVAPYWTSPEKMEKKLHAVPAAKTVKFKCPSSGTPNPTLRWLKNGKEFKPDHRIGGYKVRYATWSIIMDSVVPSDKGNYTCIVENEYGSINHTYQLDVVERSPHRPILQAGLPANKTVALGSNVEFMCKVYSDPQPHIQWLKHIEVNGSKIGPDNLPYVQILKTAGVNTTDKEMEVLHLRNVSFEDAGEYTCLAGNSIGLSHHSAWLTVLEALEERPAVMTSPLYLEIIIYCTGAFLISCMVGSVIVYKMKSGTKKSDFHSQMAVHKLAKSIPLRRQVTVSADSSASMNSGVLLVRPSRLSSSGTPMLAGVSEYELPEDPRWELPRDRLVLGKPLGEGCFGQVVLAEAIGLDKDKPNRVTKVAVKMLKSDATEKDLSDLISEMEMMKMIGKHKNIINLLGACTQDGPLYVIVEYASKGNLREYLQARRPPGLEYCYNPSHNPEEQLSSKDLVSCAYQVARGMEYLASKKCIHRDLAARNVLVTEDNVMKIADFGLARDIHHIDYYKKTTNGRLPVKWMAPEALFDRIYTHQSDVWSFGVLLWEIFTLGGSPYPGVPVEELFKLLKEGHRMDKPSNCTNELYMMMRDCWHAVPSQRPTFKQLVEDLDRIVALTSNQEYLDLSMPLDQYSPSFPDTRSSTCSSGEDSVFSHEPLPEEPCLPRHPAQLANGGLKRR
T1 sequence (P21802 22-821): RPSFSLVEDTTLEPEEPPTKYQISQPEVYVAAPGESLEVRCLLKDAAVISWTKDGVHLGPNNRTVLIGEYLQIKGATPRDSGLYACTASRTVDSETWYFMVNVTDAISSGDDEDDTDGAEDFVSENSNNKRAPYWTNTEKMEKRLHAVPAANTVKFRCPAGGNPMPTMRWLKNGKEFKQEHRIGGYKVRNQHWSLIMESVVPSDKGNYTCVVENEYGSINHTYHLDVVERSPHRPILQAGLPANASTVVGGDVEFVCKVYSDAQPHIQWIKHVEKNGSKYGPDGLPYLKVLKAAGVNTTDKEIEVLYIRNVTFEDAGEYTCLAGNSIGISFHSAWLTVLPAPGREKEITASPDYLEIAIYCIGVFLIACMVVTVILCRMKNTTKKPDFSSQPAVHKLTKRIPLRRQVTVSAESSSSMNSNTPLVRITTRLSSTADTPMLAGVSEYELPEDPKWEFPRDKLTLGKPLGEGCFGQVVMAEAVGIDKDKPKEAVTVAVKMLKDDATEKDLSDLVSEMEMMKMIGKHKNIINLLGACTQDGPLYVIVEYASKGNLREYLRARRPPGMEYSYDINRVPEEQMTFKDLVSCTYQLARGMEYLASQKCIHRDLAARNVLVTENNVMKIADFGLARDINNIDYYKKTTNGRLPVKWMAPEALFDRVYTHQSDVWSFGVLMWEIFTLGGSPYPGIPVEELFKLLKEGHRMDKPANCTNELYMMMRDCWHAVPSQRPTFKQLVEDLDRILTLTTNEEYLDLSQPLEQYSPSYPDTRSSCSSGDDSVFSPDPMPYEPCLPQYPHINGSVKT

For orientation: IC50 means the concentration at which inhibition is half-maximal. On to `C=C(F)C(=O)Nc1ccc(-c2nn3ncnc(N)c3c2-c2ccc(C(=O)NC3CC3)c(OC)c2)c(F)c1` [Compound 153, 4-(4-amino-6-(2-fluoro-4-(2-fluoroacrylamido)phenyl)pyrazolo[5,1-f][1,2,4]triazin-5-yl)-N-cyclopropyl-2-methoxybenzamide], for which the IC50 on FGFR2 was below 5 nM; in the experiment with SNU16 cells it was at most 10 nM. Further, on FGFR3, the “Selectivity FGFR3/FGFR2” value was “A+ (Selectivity of FGFR3/FGFR2 greater or equal to 150)”. Also, on FGFR1, the “Selectivity FGFR1/FGFR2” value is reported as “A+ (Selectivity of FGFR1/FGFR2 greater or equal to 500)”.
On to `C=CC(=O)Nc1ccc(-c2nn3ncnc(N)c3c2-c2ccc(C(=O)NC3CC3)c(OC)c2)c(OC)c1` [Compound 154, 4-(6-(4-acrylamido-2-methoxyphenyl)-4-aminopyrazolo[5,1-f][1,2,4]triazin-5-yl)-N-cyclopropyl-2-methoxybenzamide], for which the values for the IC50 at FGFR2 and with SNU16 cells were below 5 nM and at most 10 nM, respectively. Besides, the “Selectivity FGFR3/FGFR2” value at FGFR3 is given as “A (Selectivity of FGFR3/FGFR2 less than 150 but greater than or equal to 100)”. In addition, the “Selectivity FGFR1/FGFR2” value at FGFR1 is given as “A+ (Selectivity of FGFR1/FGFR2 greater or equal to 500)”.
The corresponding values for `C=CC(=O)Nc1ccc(-c2nn3ncnc(N)c3c2-c2ccc(C(=O)NC3CC3)c(OC)c2)c(F)c1` [Compound 155, 4-(6-(4-acrylamido-2-fluorophenyl)-4-aminopyrazolo[5,1-f] [1,2,4]triazin-5-yl)-N-cyclopropyl-2-methoxybenzamide] are below 5 nM, at most 10 nM, “A (Selectivity of FGFR3/FGFR2 less than 150 but greater than or equal to 100)” and “A+ (Selectivity of FGFR1/FGFR2 greater or equal to 500)”.
The corresponding values for `C=CC(=O)Nc1ccc(-c2c(-c3ccc(C(=O)NC4CC4)c(OC)c3)c3c(N)ncc(C#N)c3n2C)c(F)c1` [Compound 157, 4-(2-(4-acrylamido-2-fluorophenyl)-4-amino-7-cyano-1-methyl-1H-pyrrolo[3,2-c]pyridin-3-yl)-N-cyclopropyl-2-methoxybenzamide] are below 5 nM, at most 10 nM, “B (Selectivity of FGFR3/FGFR2 less than 100 but greater than or equal to 25)” and “B (Selectivity of FGFR1/FGFR2 less than 300 but greater than or equal to 200)”.
On the same counts, the results for `C=CC(=O)Nc1ccc(-c2nn3ncnc(N)c3c2-c2ccc(C(=O)NC3(C)CC3)c(OC)c2)cc1` [Compound 162, 4-(6-(4-acrylamidophenyl)-4-aminopyrazolo[5,1-f] [1,2,4]triazin-5-yl)-2-methoxy-N-(1-methylcyclopropyl)benzamide] are below 5 nM, at most 10 nM, “A+ (Selectivity of FGFR3/FGFR2 greater or equal to 150)” and “A+ (Selectivity of FGFR1/FGFR2 greater or equal to 500)”.
On to `C=C(F)C(=O)Nc1ccc(-c2nn3ncnc(N)c3c2-c2ccc(C(=O)NCC3CC3)c(OC)c2)cc1` [Compound 163], for which the IC50 on FGFR2 was below 5 nM; in the experiment with SNU16 cells, at most 10 nM. The “Selectivity FGFR3/FGFR2” value at FGFR3 is “A+ (Selectivity of FGFR3/FGFR2 greater or equal to 150)”. Besides, the “Selectivity FGFR1/FGFR2” value at FGFR1 is recorded as “A+ (Selectivity of FGFR1/FGFR2 greater or equal to 500)”.
On the same counts, the results for `C=CC(=O)Nc1ccc(-c2c(-c3ccc(C(=O)NC4CC4(F)F)c(OC)c3)c3c(N)ncc(C#N)c3n2C)cc1` (stereo not shown) [Compound 167, 4-(2-(4-acrylamidophenyl)-4-amino-7-cyano-1-methyl-1H-pyrrolo[3,2-c]pyridin-3-yl)-N-(2,2-difluorocyclopropyl)-2-methoxybenzamide] are below 5 nM, at most 10 nM, “B (Selectivity of FGFR3/FGFR2 less than 100 but greater than or equal to 25)” and “A (Selectivity of FGFR1/FGFR2 less than 500 but greater than or equal to 300)”.
